Measurements taken from patent US20110190235A1, “BORON-CONTAINING SMALL MOLECULES AS ANTIPROTOZOAL AGENTS” (Anacor Pharmaceuticals, Inc., priority 2009, published 2011).
Where two headings read alike, the source gives them in different places.

Assays:
[1] = L929 cytotoxicity evaluation (resazurin); assay type: cell-based; details: mouse, L929 mouse fibroblast cells; 72 hrs incubation; read-out: Cytotox L-929 IC50
Protocol: For evaluation of compound effects on mammalian cells, L929 mouse fibroblast cells were used. Cells were maintained as adherent cultures in T-25 vented cap flasks in a humidified incubator at 37° C. in the presence of 5% CO2. Culture media was D-MEM supplemented with 10% fetal bovine serum and 1% penicillin/streptomycin. L929 cells were maintained below confluent levels by sub-culturing at 1:10 dilution twice weekly using 0.05% trypsin for detachment.
Sub-confluent L929 cells were trypsinized, resuspended in fresh media and 10 uL was counted using hemocytometer to determine cell concentration. Cells were diluted to 1×10^4/mL in DMEM, dispensed (100 uL) into 96-well plates using a Multidrop 384 dispenser and allowed to attach overnight. Spent media was replaced with 99.5 uL fresh D-MEM and compounds to be tested were serially diluted in DMSO and 0.5 uL added using a Biomek NX liquid handler. Plates were incubated with compounds for 72 hrs at 37° C. with 5% CO2. Resazurin (20 uL of 12.5 mg/ml stock) from Sigma-Aldrich was added to each well and plates were incubated for an additional 3-4 hrs. Assay plates were read using an EnVision plate reader at an excitation wavelength of 544 nm and emission of 590 nm. Single data points were used to generate sigmoidal dose response curves and determine IC50 values using XLfit curve fitting software from IDBS (Guildford, UK).

[2] = test system: bloodstream-form trypanosome T. brucei brucei 427 strain; experiment: Trypanosoma brucei brucei high-throughput in vitro drug sensitivity assay (resazurin); assay type: cell-based; details: for IC50: Trypanosoma brucei, 72 hrs incubation; for Selectivity Index (L929 IC50 / T. b. brucei IC50): T. b. brucei vs L929

Compound | IC50 ([2]; read-out: T.b. brucei IC50) | IC50 at 72 h [1] | Selectivity Index (L929 IC50 / T. b. brucei IC50) [2] | IC50 ([2]; read-out: T. b. brucei IC50)
CCc1ccc(C(=O)Nc2ccc3c(c2)B(O)OC3(C)C)cc1 [compound 30, 4-Ethyl-N-(1-hydroxy-3,3-dimethyl-1,3-dihydro-benzo[c][1,2]oxaborol-6-yl)-benzamide] | 0.427 µg/mL | > 10 µg/mL |  | 
CC1(C)OB(O)c2cc(NC(=O)c3ccc(C(F)(F)F)cc3)ccc21 [compound 36, N-(1-Hydroxy-3,3-dimethyl-1,3-dihydro-benzo[c][1,2]oxaborol-6-yl)-4-trifluoromethyl-benzamide] | 4.05 µg/mL | > 10 µg/mL |  | 
CC1(C)OB(O)c2cc(NC(=O)c3ccccc3I)ccc21 [compound 40, N-(1-Hydroxy-3,3-dimethyl-1,3-dihydro-benzo[c][1,2]oxaborol-6-yl)-2-iodo-benzamide] | 0.599 µg/mL | > 10 µg/mL |  | 
CC1(C)OB(O)c2cc(NC(=O)c3cccc(F)c3)ccc21 [compound 41, 3-Fluoro-N-(1-hydroxy-3,3-dimethyl-1,3-dihydro-benzo[c][1,2]oxaborol-6-yl)-benzamide] | > 5 µg/mL | > 10 µg/mL |  | 
CC1(C)OB(O)c2cc(NC(=O)c3cccc(Br)c3)ccc21 [compound 43, 3-Bromo-N-(1-hydroxy-3,3-dimethyl-1,3-dihydro-benzo[c][1,2]oxaborol-6-yl)-benzamide] | 2.2 µg/mL | > 10 µg/mL |  | 
CC1(C)OB(O)c2cc(NC(=O)c3ccc(Cl)cc3)ccc21 [compound 45, 4-Chloro-N-(1-hydroxy-3,3-dimethyl-1,3-dihydro-benzo[c][1,2]oxaborol-6-yl)-benzamide] | 3.64 µg/mL | > 10 µg/mL |  | 
COc1ccc(C(=O)Nc2ccc3c(c2)B(O)OC3(C)C)cc1 [compound 48, N-(1-Hydroxy-3,3-dimethyl-1,3-dihydro-benzo[c][1,2]oxaborol-6-yl)-4-methoxy-benzamide] | 1.11 µg/mL | > 10 µg/mL | >9 | 3.57 µM
CCOc1ccccc1C(=O)Nc1ccc2c(c1)B(O)OC2(C)C [compound 49, 2-Ethoxy-N-(1-hydroxy-3,3-dimethyl-1,3-dihydro-benzo[c][1,2]oxaborol-6-yl)-benzamide] | > 5 µg/mL | > 10 µg/mL |  | 
CC1(C)OB(O)c2cc(NC(=O)c3ccccc3OC(F)(F)F)ccc21 [compound 51, N-(1-Hydroxy-3,3-dimethyl-1,3-dihydro-benzo[c][1,2]oxaborol-6-yl)-2-trifluoromethoxy-benzamide] | 1.15 µg/mL | > 10 µg/mL |  | 
CC1(C)OB(O)c2cc(NC(=O)c3cccc(OC(F)(F)F)c3)ccc21 [compound 52, N-(1-Hydroxy-3,3-dimethyl-1,3-dihydro-benzo[c][1,2]oxaborol-6-yl)-3-trifluoromethoxy-benzamide] | 2.27 µg/mL | > 10 µg/mL |  | 
CC1(C)OB(O)c2cc(NC(=O)c3ccc(SC(F)(F)F)cc3)ccc21 [compound 54, N-(1-Hydroxy-3,3-dimethyl-1,3-dihydro-benzo[c][1,2]oxaborol-6-yl)-4-trifluoromethylsulfanyl-benzamide] | 0.571 µg/mL | > 10 µg/mL |  | 
CC1(C)OB(O)c2cc(NC(=O)c3ccccc3[N+](=O)[O-])ccc21 [compound 55, N-(1-Hydroxy-3,3-dimethyl-1,3-dihydro-benzo[c][1,2]oxaborol-6-yl)-2-nitro-benzamide] | 0.122 µg/mL | > 10 µg/mL |  | 
CC1(C)OB(O)c2cc(NC(=O)c3ccc([N+](=O)[O-])cc3)ccc21 [compound 56, N-(1-Hydroxy-3,3-dimethyl-1,3-dihydro-benzo[c][1,2]oxaborol-6-yl)-4-nitro-benzamide] | > 5 µg/mL | > 10 µg/mL |  | 
CC1(C)OB(O)c2cc(NC(=O)c3ccc(C#N)cc3)ccc21 [compound 57, 4-Cyano-N-(1-hydroxy-3,3-dimethyl-1,3-dihydro-benzo[c][1,2]oxaborol-6-yl)-benzamide] | > 5 µg/mL | > 10 µg/mL |  | 
COC(=O)c1ccc(C(=O)Nc2ccc3c(c2)B(O)OC3(C)C)cc1 [compound 58, N-(1-Hydroxy-3,3-dimethyl-1,3-dihydro-benzo[c][1,2]oxaborol-6-yl)-terephthalamic acid methyl ester] | 1.11 µg/mL | > 10 µg/mL |  | 
CC1(C)OB(O)c2cc(NC(=O)c3ccc(-c4cccs4)cc3)ccc21 [compound 60, N-(1-Hydroxy-3,3-dimethyl-1,3-dihydro-benzo[c][1,2]oxaborol-6-yl)-4-thiophen-2-yl-benzamide] | 0.205 µg/mL | > 10 µg/mL |  | 
CC1(C)OB(O)c2cc(NC(=O)c3ccc(N4CCOCC4)cc3)ccc21 [compound 61, N-(1-Hydroxy-3,3-dimethyl-1,3-dihydro-benzo[c][1,2]oxaborol-6-yl)-4-morpholin-4-yl-benzamide] | 1.6 µg/mL | > 10 µg/mL |  | 
CC1(C)OB(O)c2cc(NC(=O)c3ccc(-c4ccccc4)cc3)ccc21 [compound 62, Biphenyl-4-carboxylic acid (1-hydroxy-3,3-dimethyl-1,3-dihydro-benzo[c][1,2]oxaborol-6-yl)-amide] | 0.365 µg/mL | > 10 µg/mL |  | 
CC1(C)OB(O)c2cc(NC(=O)c3ccc(F)cc3F)ccc21 [compound 63, 2,4-Difluoro-N-(1-hydroxy-3,3-dimethyl-1,3-dihydro-benzo[c][1,2]oxaborol-6-yl)-benzamide] | 2.66 µg/mL | > 10 µg/mL | >4 | 8.39 µM
CC1(C)OB(O)c2cc(NC(=O)c3c(F)cccc3F)ccc21 [compound 64, 2,6-Difluoro-N-(1-hydroxy-3,3-dimethyl-1,3-dihydro-benzo[c][1,2]oxaborol-6-yl)-benzamide] | 0.724 µg/mL | > 10 µg/mL |  | 
CC1(C)OB(O)c2cc(NC(=O)c3ccc(Cl)c(Cl)c3)ccc21 [compound 67, 3,4-Dichloro-N-(1-hydroxy-3,3-dimethyl-1,3-dihydro-benzo[c][1,2]oxaborol-6-yl)-benzamide] | > 5 µg/mL | > 10 µg/mL |  | 

More lines, main results first:

IC50 ([2]; read-out: T.b. brucei IC50) | Compound | IC50 at 72 h [1] | Selectivity Index (L929 IC50 / T. b. brucei IC50) [2] | IC50 ([2]; read-out: T. b. brucei IC50)
3.62 µg/mL | Cc1ccc(C(=O)Nc2ccc3c(c2)B(O)OC3(C)C)cc1 [compound 29, N-(1-Hydroxy-3,3-dimethyl-1,3-dihydro-benzo[c][1,2]oxaborol-6-yl)-4-methyl-benzamide] | > 10 µg/mL |  | 
0.397 µg/mL | CCCc1ccc(C(=O)Nc2ccc3c(c2)B(O)OC3(C)C)cc1 [compound 31, N-(1-Hydroxy-3,3-dimethyl-1,3-dihydro-benzo[c][1,2]oxaborol-6-yl)-4-propyl-benzamide] | > 10 µg/mL |  | 
0.349 µg/mL | CCCCc1ccc(C(=O)Nc2ccc3c(c2)B(O)OC3(C)C)cc1 [compound 32, 4-Butyl-N-(1-hydroxy-3,3-dimethyl-1,3-dihydro-benzo[c][1,2]oxaborol-6-yl)-benzamide] | > 10 µg/mL |  | 
2.74 µg/mL | CC1(C)OB(O)c2cc(NC(=O)c3cccc(C(F)(F)F)c3)ccc21 [compound 35, N-(1-Hydroxy-3,3-dimethyl-1,3-dihydro-benzo[c][1,2]oxaborol-6-yl)-3-trifluoromethyl-benzamide] | > 10 µg/mL |  | 
1.42 µg/mL | CC1(C)OB(O)c2cc(NC(=O)c3ccccc3F)ccc21 [compound 37, 2-Fluoro-N-(1-hydroxy-3,3-dimethyl-1,3-dihydro-benzo[c][1,2]oxaborol-6-yl)-benzamide] | > 10 µg/mL |  | 
2.12 µg/mL | CC1(C)OB(O)c2cc(NC(=O)c3cccc(Cl)c3)ccc21 [compound 42, 3-Chloro-N-(1-hydroxy-3,3-dimethyl-1,3-dihydro-benzo[c][1,2]oxaborol-6-yl)-benzamide] | > 10 µg/mL |  | 
3.01 µg/mL | COc1ccccc1C(=O)Nc1ccc2c(c1)B(O)OC2(C)C [compound 46, N-(1-Hydroxy-3,3-dimethyl-1,3-dihydro-benzo[c][1,2]oxaborol-6-yl)-2-methoxy-benzamide] | > 10 µg/mL |  | 
2.35 µg/mL | COc1cccc(C(=O)Nc2ccc3c(c2)B(O)OC3(C)C)c1 [compound 47, N-(1-Hydroxy-3,3-dimethyl-1,3-dihydro-benzo[c][1,2]oxaborol-6-yl)-3-methoxy-benzamide] | > 10 µg/mL |  | 
1.4 µg/mL | CCCCCOc1ccc(C(=O)Nc2ccc3c(c2)B(O)OC3(C)C)cc1 [compound 50, N-(1-Hydroxy-3,3-dimethyl-1,3-dihydro-benzo[c][1,2]oxaborol-6-yl)-4-pentyloxy-benzamide] | > 10 µg/mL |  | 
0.407 µg/mL | CC1(C)OB(O)c2cc(NC(=O)c3ccc(OC(F)(F)F)cc3)ccc21 [compound 53, N-(1-Hydroxy-3,3-dimethyl-1,3-dihydro-benzo[c][1,2]oxaborol-6-yl)-4-trifluoromethoxy-benzamide] | > 10 µg/mL |  | 
1.61 µg/mL | CC(=O)Nc1ccc(C(=O)Nc2ccc3c(c2)B(O)OC3(C)C)cc1 [compound 59, 4-Acetylamino-N-(1-hydroxy-3,3-dimethyl-1,3-dihydro-benzo[c][1,2]oxaborol-6-yl)-benzamide] | > 10 µg/mL |  | 
0.292 µg/mL | CC1(C)OB(O)c2cc(NC(=O)c3cccc(Cl)c3Cl)ccc21 [compound 66, 2,3-Dichloro-N-(1-hydroxy-3,3-dimethyl-1,3-dihydro-benzo[c][1,2]oxaborol-6-yl)-benzamide] | > 10 µg/mL |  | 
